Results taken from paper PMC10304164, “Laurequinone, a Lead Compound against Leishmania” (Marine Drugs, 2023).
Like-named read-outs stand apart in the source and are kept apart here.

Columns and labels:
[1] = test system: Leishmania amazonensis promastigotes; assay: Alamar Blue assay against promastigotes; format: cell-based; conditions: L. amazonensis promastigotes
Procedure: Leishmania amazonensis (MHOM/BR/77/LTB0016) promastigotes were cultured in RPMI 1640 medium (Gibco, Waltham, MA, USA), supplemented with 10 % FBS at 26 °C. Additionally, for maintenance, the promastigotes were cultured in SND medium (Sigma-Aldrich, Darmstadt, Germany) supplemented with 10 % FBS at 26 °C. Both media were supplemented with gentamicin at 10 µg/mL.
Compounds 1–5 were tested against promastigotes of Leishmania amazonensis using the colorimetric assay based on the Alamar Blue® reagent. In a 96-well plate, serial dilutions of the compounds and the promastigote form of the parasite (10^6 cells/mL) were added at a final volume of 200 µL.

[2] = test system: L. amazonensis intracellular amastigotes; assay: Alamar Blue assay against intracellular amastigotes in murine macrophages; format: cell-based; conditions: Leishmania amazonensis, Macrophage; intracellular amastigotes of L. amazonensis
Procedure: Briefly, in a 96-well plate, murine macrophages (2 × 10^5 cells/mL) were incubated in RPMI medium at 37 °C and 5 % CO2 atmosphere for 2–4 h. Promastigote forms of L. amazonensis (2 × 10^6 cells/mL) were added to reach a 1:10 macrophage:parasite ration, and after 24 h of incubation, the cells were washed to discard the not-introduced parasites. Serial dilutions of the compound were added in 100 µL of RPMI medium. Following 24 h of incubation, the plate was washed, and the cells were broken with SDS 0.05% for 30 s. Fresh medium was added, and 48 h later, 10% Alamar Blue® reagent was added.

[3] = Cytotoxic activity, Alamar Blue; format: cell-based; conditions: mouse, murine macrophages J774A.1, 24 h
Procedure: Murine macrophages (J774A.1) ATCC TIB-67 were cultured in RPMI, supplemented with 10% FBS at 37 °C and 5 % CO2 atmosphere.
In a 96-well plate, macrophages (2 × 10^5 cells/mL) were added. After completing the adherence (2–4 h), macrophages were incubated with serial dilutions of compounds 1–5. […] The selectivity index (SI) was calculated as the ratio of CC50 and IC50 [38].

[4] = test system: Leishmania amazonensis promastigotes; assay: ATP level analysis (CellTiter-Glo); format: cell-based; conditions: 24 h incubation with IC90, compared to untreated parasites
Procedure: (§1) After incubation for 24 h at 26 °C, samples were centrifuged (3000 rpm, 10 min, 4 °C) and resuspended in 50 µL of PBS buffer. Different events involved in parasite cell death were studied following the manufacturer’s instructions for each kit.
ATP levels were measured using the CellTiter-Glo® Luminescent Cell Viability Assay kit (Promega, Fitchburg, WI, USA) and the EnSpire Multimode Plate Reader® (PerkinElmer, Waltham, MA, USA). After 24 h of incubation with laurequinone (1), the pellet was resuspended in the buffer and the kit. After 2 min of agitation and 10 min of incubation at room temperature in the dark, the luminescence was measured with the EnSpire Multimode Plate Reader®. The results were plotted against the negative control of untreated cells. Sodium azide (20 mM) was added as a positive control.

[5] = test system: Leishmania amazonensis promastigotes; assay: Mitochondrial membrane potential analysis (JC-1); format: cell-based; conditions: 24 h incubation with IC90, JC-1
Procedure: as §1
The JC-1 Mitochondrial Membrane Potential Assay Kit® (Cayman Chemical, Ann Arbor, MI, USA) was used to determine whether an alteration in the mitochondrial potential occurred during cell death. The parasites treated with laurequinone were incubated with the staining solution for 20 min at 26 °C in the dark. Green and red fluorescence were measured using the EnSpire Multimode Plate Reader® (PerkinElmer). The results were expressed as the percentage relative to the untreated cells of the red (J-aggregates 540/570 nm)/green ratio (J-monomers 485/535 nm). The membrane-permeant JC-1 dye is widely used in apoptosis studies to monitor mitochondrial health. […] Consequently, mitochondrial depolarization is indicated by a decrease in the red/green fluorescence intensity ratio. Sodium azide (20 mM) was added as a positive control.

[6] = test system: L. amazonensis promastigotes; assay: Phosphatidylserine externalization (annexin V/PI, TALI cytometer); format: cell-based, Leishmania amazonensis; conditions: 24 h incubation with IC90
Procedure: as §1
A double-staining assay with annexin V/propidium iodide (PI) was performed using the Tali® Apoptosis Kit–Annexin V Alexa Fluor® 488 (Invitrogen^TM, Waltham, MA, USA). Briefly, after incubating the treated parasites for 24 h, they were washed with the buffer and incubated with annexin V for 20 min. Promastigotes were centrifuged and resuspended in buffer containing PI and incubated for 3 min. Finally, the stained cells were loaded into a slide and inserted in a TALI^TM image-based cytometer (Life Technologies, Carlsbad, CA, USA). Data were expressed in percentages, divided into three groups: apoptotic cells (green fluorescence), dead cells (red or red and green fluorescence), and live cells (no fluorescence), provided by TALI® data acquisition and analysis software (Life Technologies).

[7] = test system: L. amazonensis promastigotes; assay: Reactive oxygen species analysis (CellROX Deep Red); format: cell-based, Leishmania amazonensis; conditions: 24 h incubation with IC90
Procedure: as §1
Oxidative stress is the result of an imbalance between the production of reactive oxygen species (ROS) and the cells’ ability to remove them. The CellROX® Deep Red Reagent (ThermoFisher Scientific, Waltham, MA, USA) was used to measure the oxidative stress. […] Treated parasites were incubated and resuspended in the buffer, the kit was added, and the plate was incubated for 30 min at 26 °C in the dark. Oxidative stress is represented as red fluorescence in the images obtained with the Cy5 light cube (excitation 644 nm/emission 665 nm) of the EVOS® FL Cell Imaging System (ThermoFisher Scientific, Waltham, MA, USA). Untreated parasites were used as a negative control, and hydrogen peroxide (600 mM) was used as a positive control.

[8] = test system: L. amazonensis promastigotes; assay: Chromatin condensation analysis (Hoechst 33342/PI); format: cell-based, Leishmania amazonensis; conditions: promastigotes treated with IC90, Hoechst/PI
Procedure: as §1
The Invitrogen Chromatin Condensation/Dead Cell Apoptosis Kit, Hoechst 33342/propidium iodide (PI), was used to determine whether chromatin condensation was produced in the treated parasites. After adding the kit, the parasites were incubated for 30 min at 26 °C in the dark. The results were observed under the EVOS fluorescence microscope using DAPI (excitation 350 nm/emission 461 nm for Hoechst) and RFP (excitation 535 nm/emission 617 nm for PI) light cubes. The obtained images were divided into three types of results: low fluorescence of both stains when the cells were alive, intense fluorescence when the cell had condensed chromatin (programmed cell death), and intense red fluorescence when the cell had died.

[9] = test system: L. amazonensis promastigotes; assay: Plasma membrane permeability (SYTOX Green); format: cell-based, Leishmania amazonensis; conditions: 24 h incubation with IC90
Procedure: as §1
The SYTOX Green assay (Life Technologies, Madrid, Spain) was used to determine the damage in the plasma membrane permeability of treated cells. Parasites were incubated for 24 h with the compound and the stain was added and incubated for 15 min. […] Triton X-100, a well-known non-ionic surfactant, was added at 0.5% for 3 h before staining, as a positive control.

[10] = test system: L. donovani promastigotes; design: method as in PMID 21717278; conditions: L. donovani promastigotes ref 32; cited from earlier work
[11] = test system: L. donovani axenic amastigotes; design: method as in PMID 21717278; conditions: L. donovani axenic amastigotes ref 32; cited from earlier work
trypanothione reductase = test system: trypanothione reductase; design: method as in PMID 21717278; conditions: cited from earlier work
[12] = 72 h total, read-out: IC50 Promastigotes
[13] = Leishmania amazonensis, 72 h, 72 h total, read-out: IC50 Promastigotes

CC1=CC(=O)C([C@]2(C)CC[C@@H]3C[C@@]32C)=CC1=O [Laurequinone (1), laurequinone]
IC50 [1, 12]: 1.87 ± 0.17 µM | IC50 [1, 13]: < 2 µM | IC50 ([1]; Leishmania amazonensis, expressed in µg/mL, read-out: IC50): 0.43 µg/mL | IC50 [2]: 16.7 ± 6.08 µM | CC50 at 24 h ([3]; J774A.1 macrophages): 42.1 ± 1.3 µM | ATP levels [4]: no change in ATP levels | mitochondrial membrane potential (ΔΨm) [5]: significant decrease in mitochondrial membrane potential | cell population with exposed phosphatidylserine residues [6]: approximately 30% | ROS accumulation (CellROX Deep Red fluorescence) [7]: noticeable increase in visual fluorescence of CellROX Deep Red | chromatin condensation [8]: no chromatin condensation was observed | plasma membrane permeability (SYTOX Green fluorescence) [9]: no significant green fluorescence was observed

CC1=CC(=O)c2c(O)cccc2C1=O [Plumbagin]
IC50 [10]: 0.34 µM | IC50 [11]: 0.21 µM | mechanism of action on trypanothione reductase (trypanothione reductase): non-competitive inhibition of trypanothione reductase

Cc1cc(O)c([C@]2(C)CC[C@@H]3C[C@@]32C)cc1Br [Laurinterol (2), laurinterol]
IC50 [1, 13]: 34.5 ± 6.44 µM | IC50 [2]: 34.7 ± 4.06 µM | CC50 at 24 h [3]: 80.1 ± 7.79 µM

Cc1ccc([C@]2(C)CC[C@@H]3C[C@@]32C)c(O)c1 [Debromolaurinterol (3), debromolaurinterol]
IC50 [1, 12]: 12.48 ± 0.05 µM | IC50 [1, 13]: < 15 µM | IC50 [2]: 24.3 ± 5.09 µM | CC50 at 24 h ([3]; J774A.1 macrophages): 70.1 ± 12.9 µM

Cc1cc2c(cc1Br)[C@]1(C)CC[C@H](C)[C@]1(C)O2 [Aplysin (5), aplysin]
IC50 [1, 13]: 54.1 µM | CC50 at 24 h [3]: 1100 ± 40.6 µM

CCCCCCCCCCCCCCCCOP(=O)([O-])OCC[N+](C)(C)C [Miltefosine, miltefosine, reference compound]
IC50 [1, 13]: 6.48 ± 0.25 µM | IC50 [2]: 3.12 ± 0.29 µM | CC50 at 24 h ([3]; J774A.1 macrophages): 72.2 ± 3.07 µM

C=C1[C@@H](C)CC[C@@]1(C)c1cc(Br)c(C)cc1O [Isolaurinterol (4), isolaurinterol]
IC50 [1, 12]: 10.1 ± 1.69 µM | IC50 [1, 13]: < 15 µM | CC50 at 24 h [3]: 24.6 ± 2.37 µM
